Patent US20080287543A1, “Pharmaceutical composition comprising 5-methyl-2 (2'-chloro-6'-fluoroanillino) phen ylacetic acid” (priority 2003, published 2008)

Legend:
Type in all cases: physicochemical
Solubility in water = test: Solubility in water
Excerpt: (§1) Thus, the ability to produce a shelf-stable parenteral formulation is unexpected.

[1] = Stability in 100% polyethylene glycol (PEG) 400 solution; conditions: 100% PEG 400, 50° C., in the dark, after 4 weeks
Excerpt: as §1

[2] = Stability in 100% propylene glycol (PG) solution; conditions: 50° C., in the dark, after 4 weeks
Excerpt: as §1

With Cc1ccc(Nc2c(F)cccc2Cl)c(CC(=O)O)c1 [5-methyl-2-(2′-chloro-6′-fluoroanilino)phenylacetic acid] the solubility in water (Solubility in water) was “relatively insoluble”.

In the case of Cc1ccc(Nc2c(F)cccc2Cl)c(CC(=O)[O-])c1.[K+] [Potassium salt of 5-methyl-2-(2′-chloro-6′-fluoroanilino)phenylacetic acid], the “degradation in a solution of 100% PEG 400” value [1] is reported as 5% and the “degradation in a solution of 100% PG” value [2] is reported as 7%.
